Measurements as given in ChEMBL document CHEMBL1201862, “PubChem BioAssay data set” (2004).
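A five-concentration, 48-hour dose response in 96-well plates underlies each endpoint, interpolated linearly between surrounding concentrations. GI50 = concentration required for 50% inhibition of growth.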 Active and inactive are the calls of the source. No stated cut-off is given here; in the data, active = GI50 up to about 1.1 µM and inactive = higher.

Columns and labels:
Test in all cases: DTP human tumour cell line panel, 48 h
[1] = tested on: SN12C
[2] = tested on: MCF7
[3] = tested on: MDA-MB-435
[4] = tested on: SW-620
[5] = tested on: MDA-MB-231
[6] = tested on: OVCAR-5
[7] = tested on: RPMI-8226
[8] = tested on: OVCAR-8
[9] = tested on: ACHN
[10] = tested on: EKVX
[11] = tested on: UO-31
[12] = tested on: OVCAR-4
[13] = tested on: NCI-H522
[14] = tested on: Hs-578T
[15] = tested on: A498
[16] = tested on: UACC-62
[17] = tested on: DU-145
[18] = tested on: PC-3
[19] = tested on: HL-60

Row | Structure (SMILES) | GI50 [1] | GI50 [2] | GI50 [3] | GI50 [4] | GI50 [5] | GI50 [6] | GI50 [7] | GI50 [8] | GI50 [9] | GI50 [10] | GI50 [11] | GI50 [12] | GI50 [13] | GI50 [14] | GI50 [15] | GI50 [16] | GI50 [17] | GI50 [18] | GI50 [19]
1 | Cn1c(=O)c2nc(CCS)[nH]c2n(C)c1=O | > 100 µM (inactive) | > 100 µM (inactive) | > 100 µM (inactive) | > 100 µM (inactive) | > 100 µM (inactive) | > 100 µM (inactive) | > 100 µM (inactive) | > 100 µM (inactive) | > 100 µM (inactive) | > 100 µM (inactive) | > 100 µM (inactive) | > 100 µM (inactive) | > 100 µM (inactive) | 31.4 µM (inactive) | > 100 µM (inactive) | > 100 µM (inactive) | > 100 µM (inactive) | > 100 µM (inactive) | > 100 µM (inactive)
2 | Nc1cc(C(=O)O)nc(O)n1 | > 100 µM (inactive) | > 100 µM (inactive) | > 100 µM (inactive) | > 100 µM (inactive) | > 100 µM (inactive) | > 100 µM (inactive) | > 100 µM (inactive) | > 100 µM (inactive) | > 100 µM (inactive) | > 100 µM (inactive) | > 100 µM (inactive) | > 100 µM (inactive) | > 100 µM (inactive) | > 100 µM (inactive) | > 100 µM (inactive) | > 100 µM (inactive) | > 100 µM (inactive) | > 100 µM (inactive) | > 100 µM (inactive)
3 | Cc1cccc2c1C(=O)C1(Cc3ccccc3C1=O)C2 (stereo unspecified) | > 100 µM (inactive) | > 100 µM (inactive) | > 100 µM (inactive) | > 100 µM (inactive) | > 100 µM (inactive) | > 100 µM (inactive) | 57.9 µM (inactive) | > 100 µM (inactive) | > 100 µM (inactive) | > 100 µM (inactive) | 28.9 µM (inactive) | > 100 µM (inactive) | > 100 µM (inactive) | 48.3 µM (inactive) | 47.1 µM (inactive) | 84.7 µM (inactive) | > 100 µM (inactive) | > 100 µM (inactive) | > 100 µM (inactive)
4 | CN1C(=O)C(O)CC1c1ccc(C(F)(F)F)cc1 (stereo unspecified) | > 100 µM (inactive) | > 100 µM (inactive) | > 100 µM (inactive) | > 100 µM (inactive) | > 100 µM (inactive) | > 100 µM (inactive) | > 100 µM (inactive) | > 100 µM (inactive) | > 100 µM (inactive) | > 100 µM (inactive) | > 100 µM (inactive) | > 100 µM (inactive) | > 100 µM (inactive) | > 100 µM (inactive) | > 100 µM (inactive) | > 100 µM (inactive) | > 100 µM (inactive) | > 100 µM (inactive) | > 100 µM (inactive)
5 | O=c1[nH]c2cc(Cl)ccc2nc1/C(=N/Nc1ccccc1)C(O)c1ccco1 (stereo unspecified) | > 100 µM (inactive) | > 100 µM (inactive) | > 100 µM (inactive) | > 100 µM (inactive) | > 100 µM (inactive) | > 100 µM (inactive) | > 100 µM (inactive) | > 100 µM (inactive) | > 100 µM (inactive) | > 100 µM (inactive) | > 100 µM (inactive) | > 100 µM (inactive) | > 100 µM (inactive) | > 100 µM (inactive) | > 100 µM (inactive) | > 100 µM (inactive) | > 100 µM (inactive) | > 100 µM (inactive) | > 100 µM (inactive)
6 | C=CC1C(OC2OC(CO)C(O)C(O)C2O)OC=C(C(=O)OC)C1CC1CC(=O)CC(CCc2ccc(O)cc2)O1 (stereo unspecified) | > 100 µM (inactive) | > 100 µM (inactive) | > 100 µM (inactive) | > 100 µM (inactive) | > 100 µM (inactive) | > 100 µM (inactive) | > 100 µM (inactive) | > 100 µM (inactive) | > 100 µM (inactive) | > 100 µM (inactive) | > 100 µM (inactive) | > 100 µM (inactive) | > 100 µM (inactive) | > 100 µM (inactive) | > 100 µM (inactive) | > 100 µM (inactive) | > 100 µM (inactive) | > 100 µM (inactive) | > 100 µM (inactive)
7 | O=C(O)CN(CC(=O)O)C1CCCCC1N1CC(=O)OC(=O)C1 (stereo unspecified) | > 100 µM (inactive) | 69.3 µM (inactive) | > 100 µM (inactive) | 42.6 µM (inactive) | > 100 µM (inactive) | > 100 µM (inactive) | > 100 µM (inactive) | > 100 µM (inactive) | > 100 µM (inactive) | > 100 µM (inactive) | > 100 µM (inactive) | > 100 µM (inactive) | > 100 µM (inactive) | 47.1 µM (inactive) | > 100 µM (inactive) | > 100 µM (inactive) | > 100 µM (inactive) | > 100 µM (inactive) | > 100 µM (inactive)
8 | CC(C)(C)C1=CC(=CC=C2C=CN(CCCCCCCCCCCO)C=C2)C=C(C(C)(C)C)C1=O | 1.25 µM (inactive) | 0.796 µM (active) | 1.7 µM (inactive) | 2.19 µM (inactive) | 1.63 µM (inactive) | 2.48 µM (inactive) | 0.338 µM (active) | 1.31 µM (inactive) | 2.19 µM (inactive) | 1.96 µM (inactive) | 1.76 µM (inactive) | 1.76 µM (inactive) | 0.453 µM (active) | 1.87 µM (inactive) | 3.01 µM (inactive) | 1.5 µM (inactive) | 2.88 µM (inactive) | 1.69 µM (inactive) | 1.72 µM (inactive)
9 | CC(C)(C)c1ccc(O)c(C(c2ccc([N+](=O)[O-])cc2)c2cc(C(C)(C)C)ccc2O)c1 | 2.38 µM (inactive) | 2 µM (inactive) | 1.78 µM (inactive) | 2.11 µM (inactive) | 1.87 µM (inactive) | 1.82 µM (inactive) | 2.37 µM (inactive) | 2.56 µM (inactive) | 1.85 µM (inactive) | 1.97 µM (inactive) | 1.95 µM (inactive) | 1.85 µM (inactive) | 2.11 µM (inactive) | 3.61 µM (inactive) | 2.11 µM (inactive) | 1.66 µM (inactive) | 2.39 µM (inactive) | 1.85 µM (inactive) | 2.23 µM (inactive)
10 | NC1=Nc2ccccc2Sc2nccn21 | 36.3 µM (inactive) | 44.3 µM (inactive) | 23.7 µM (inactive) | 32.3 µM (inactive) | 16.1 µM (inactive) | 48.8 µM (inactive) | 18.2 µM (inactive) | 31.1 µM (inactive) | 30 µM (inactive) | 27.7 µM (inactive) | 23.9 µM (inactive) | 30.6 µM (inactive) | 19.3 µM (inactive) | 25.3 µM (inactive) | 28.2 µM (inactive) | 28.2 µM (inactive) | 37.7 µM (inactive) | 22.6 µM (inactive) | 18.7 µM (inactive)
11 | Cc1cnc2c(c1)C(=O)N(c1ccc([N+](=O)[O-])cc1)S2(=O)=O | > 100 µM (inactive) | > 100 µM (inactive) | 70.5 µM (inactive) | 58.7 µM (inactive) | > 100 µM (inactive) | > 100 µM (inactive) | 37.7 µM (inactive) | > 100 µM (inactive) | > 100 µM (inactive) | > 100 µM (inactive) | > 100 µM (inactive) | 78 µM (inactive) | 25.1 µM (inactive) | 38.1 µM (inactive) | 68.4 µM (inactive) | 75.5 µM (inactive) | > 100 µM (inactive) | 67.3 µM (inactive) | 28.2 µM (inactive)
12 | COc1cc(Br)cc2nc(-c3cccs3)oc12 | > 100 µM (inactive) | 2.3 µM (inactive) | > 100 µM (inactive) | > 100 µM (inactive) | > 42.2 µM (inactive) | > 100 µM (inactive) | > 100 µM (inactive) | > 100 µM (inactive) | > 83.8 µM (inactive) | > 61.9 µM (inactive) | > 54.7 µM (inactive) | > 26.9 µM (inactive) | 99.8 µM (inactive) | 31.3 µM (inactive) | > 55.3 µM (inactive) | > 100 µM (inactive) | > 100 µM (inactive) | > 100 µM (inactive) | > 100 µM (inactive)
13 | CCOC(=O)C(NNS(=O)(=O)c1ccc(C)cc1)S(=O)(=O)C(F)(F)C(F)(F)C(F)(F)C(F)(F)F (stereo unspecified) | > 100 µM (inactive) | > 100 µM (inactive) | > 100 µM (inactive) | > 100 µM (inactive) | > 100 µM (inactive) | > 100 µM (inactive) | > 100 µM (inactive) | > 100 µM (inactive) | > 100 µM (inactive) | > 100 µM (inactive) | > 100 µM (inactive) | > 100 µM (inactive) | > 100 µM (inactive) | 97.3 µM (inactive) | > 100 µM (inactive) | > 100 µM (inactive) | > 100 µM (inactive) | > 100 µM (inactive) | > 100 µM (inactive)
14 | CC1(C)OCC2OC3(c4nc(C#N)c(N)o4)OC(C)(C)OC3C2O1 (stereo unspecified) | > 100 µM (inactive) | > 100 µM (inactive) | > 100 µM (inactive) | > 100 µM (inactive) | > 100 µM (inactive) | > 100 µM (inactive) | > 100 µM (inactive) | > 100 µM (inactive) | > 100 µM (inactive) | > 100 µM (inactive) | > 100 µM (inactive) | > 100 µM (inactive) | > 100 µM (inactive) | > 100 µM (inactive) | > 100 µM (inactive) | > 100 µM (inactive) | > 100 µM (inactive) | > 100 µM (inactive) | > 100 µM (inactive)
